# “And” between values parts separate entries of the source, which are not always exact repeats. Equal entries are not always repeated.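 The concentration for 50% growth inhibition is given as GI50. TGI: total growth inhibition.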
# Assays:
# Experiment in all cases: growth of human tumour cells (NCI), 384-well format
# 786-0 renal = system: 786-0 renal
# A498 renal = system: A498 renal
# A549 NSCLC = system: A549 NSCLC
# ACHN renal = system: ACHN renal
# BT-549 breast = system: BT-549 breast
# CAKI-1 renal = system: CAKI-1 renal
# CCRF-CEM leukemia = system: CCRF-CEM leukemia
# COLO 205 colon = system: COLO 205 colon
# DU-145 prostate = system: DU-145 prostate
# EKVX NSCLC = system: EKVX NSCLC
# HCC-2998 colon = system: HCC-2998 colon
# HCT-116 colon = system: HCT-116 colon
# HCT-15 colon = system: HCT-15 colon
# HL-60(TB) leukemia = system: HL-60(TB) leukemia
# HOP-62 NSCLC = system: HOP-62 NSCLC
# HOP-92 NSCLC = system: HOP-92 NSCLC
# HS 578T breast = system: HS 578T breast
# HT29 colon = system: HT29 colon
# IGROV1 ovarian = system: IGROV1 ovarian
# K-562 leukemia = system: K-562 leukemia
# KM12 colon = system: KM12 colon
# LOX IMVI melanoma = system: LOX IMVI melanoma
# M14 melanoma = system: M14 melanoma
# MALME-3M melanoma = system: MALME-3M melanoma
# MCF7 breast = system: MCF7 breast
# MDA-MB-231 breast = system: MDA-MB-231 breast
# MDA-MB-435 melanoma = system: MDA-MB-435 melanoma
# MDA-MB-468 breast = system: MDA-MB-468 breast
# MOLT-4 leukemia = system: MOLT-4 leukemia
# NCI-H226 lung = system: NCI-H226 lung
# NCI-H23 lung = system: NCI-H23 lung
# NCI-H322M lung = system: NCI-H322M lung
# NCI-H460 NSCLC = system: NCI-H460 NSCLC
# NCI-H522 lung = system: NCI-H522 lung
# NCI/ADR-RES ovarian = system: NCI/ADR-RES ovarian
# OVCAR-3 ovarian = system: OVCAR-3 ovarian
# OVCAR-4 ovarian = system: OVCAR-4 ovarian
# OVCAR-5 ovarian = system: OVCAR-5 ovarian
# OVCAR-8 ovarian = system: OVCAR-8 ovarian
# PC-3 prostate = system: PC-3 prostate
# RPMI-8226 leukemia = system: RPMI-8226 leukemia
# RXF 393 renal = system: RXF 393 renal
# SF-268 CNS = system: SF-268 CNS
# SF-295 CNS = system: SF-295 CNS
# SF-539 CNS = system: SF-539 CNS
# SK-MEL-2 melanoma = system: SK-MEL-2 melanoma
# SK-MEL-28 melanoma = system: SK-MEL-28 melanoma
# SK-MEL-5 melanoma = system: SK-MEL-5 melanoma
# SK-OV-3 ovarian = system: SK-OV-3 ovarian
# SN12C renal = system: SN12C renal
# SNB-19 CNS = system: SNB-19 CNS
# SNB-75 CNS = system: SNB-75 CNS
# SR leukemia = system: SR leukemia
# SW-620 colon = system: SW-620 colon
# T-47D breast = system: T-47D breast
# TK-10 renal = system: TK-10 renal
# U251 glioblastoma = system: U251 glioblastoma
# UACC-257 melanoma = system: UACC-257 melanoma
# UACC-62 melanoma = system: UACC-62 melanoma
# UO-31 renal = system: UO-31 renal
compound,measurement,setting,value
COc1c(OCCCN2CCOCC2)ccc2c3n(c(=NC(=O)c4cnc(N)nc4)nc12)CCN3,GI50,786-0 renal,177 nM and 242 nM
same,TGI,786-0 renal,14000 nM
same,GI50,A498 renal,53.9 nM and 68.3 nM
same,TGI,A498 renal,146 nM and 470 nM
same,GI50,A549 NSCLC,67.7 nM and 54.1 nM
same,TGI,A549 NSCLC,849 nM and 908 nM
same,GI50,ACHN renal,26.6 nM and 108 nM
same,GI50,BT-549 breast,102 nM and 65.3 nM
same,TGI,BT-549 breast,2870 nM and 648 nM
same,GI50,CAKI-1 renal,27 nM and 72.4 nM
same,TGI,CAKI-1 renal,317 nM
same,GI50,CCRF-CEM leukemia,18 nM and 38.6 nM
same,TGI,CCRF-CEM leukemia,5610 nM and 1330 nM
same,GI50,COLO 205 colon,26.9 nM and 48.5 nM
same,TGI,COLO 205 colon,3670 nM and 3440 nM
same,GI50,DU-145 prostate,128 nM and 164 nM
same,TGI,DU-145 prostate,> 100000 nM
same,GI50,EKVX NSCLC,22 nM and 56.8 nM
same,TGI,EKVX NSCLC,289 nM and 1160 nM
same,GI50,HCC-2998 colon,82.3 nM and 138 nM
same,TGI,HCC-2998 colon,5440 nM and 766 nM
same,GI50,HCT-116 colon,101 nM and 163 nM
same,TGI,HCT-116 colon,> 50000 nM
same,GI50,HCT-15 colon,47.8 nM and 78.3 nM
same,TGI,HCT-15 colon,> 50000 nM
same,GI50,HL-60(TB) leukemia,< 5 nM
same,GI50,HOP-62 NSCLC,167 nM and 385 nM
same,TGI,HOP-62 NSCLC,> 100000 nM
same,GI50,HOP-92 NSCLC,38.5 nM and 35 nM
same,GI50,HS 578T breast,55.7 nM and 30 nM
same,TGI,HS 578T breast,289 nM and 347 nM
same,GI50,HT29 colon,22.9 nM
same,TGI,HT29 colon,> 50000 nM
same,GI50,IGROV1 ovarian,< 5 nM
same,TGI,IGROV1 ovarian,16.5 nM and 29.9 nM
same,GI50,K-562 leukemia,2250 nM
same,TGI,K-562 leukemia,> 50000 nM
same,GI50,KM12 colon,436 nM and 316 nM
same,TGI,KM12 colon,> 100000 nM
same,GI50,LOX IMVI melanoma,154 nM
same,TGI,LOX IMVI melanoma,1210 nM
same,GI50,M14 melanoma,190 nM and 158 nM
same,TGI,M14 melanoma,> 50000 nM
same,GI50,MALME-3M melanoma,74.5 nM and 22.8 nM
same,TGI,MALME-3M melanoma,396 nM and 204 nM
same,GI50,MCF7 breast,< 5 nM
same,TGI,MCF7 breast,> 50000 nM
same,GI50,MDA-MB-231 breast,1960 nM and 219 nM
same,GI50,MDA-MB-435 melanoma,237 nM
same,TGI,MDA-MB-435 melanoma,> 100000 nM
same,GI50,MDA-MB-468 breast,15.3 nM and 20.4 nM
same,TGI,MDA-MB-468 breast,79.7 nM and 138 nM
same,GI50,MOLT-4 leukemia,17.3 nM and < 11.8 nM
same,TGI,MOLT-4 leukemia,101 nM and 38.5 nM
same,GI50,NCI-H226 lung,160 nM and 90.8 nM
same,TGI,NCI-H226 lung,> 50000 nM
same,GI50,NCI-H23 lung,472 nM and 248 nM
same,TGI,NCI-H23 lung,> 50000 nM
same,GI50,NCI-H322M lung,93.3 nM and 38.9 nM
same,GI50,NCI-H460 NSCLC,21.5 nM and 25.9 nM
same,TGI,NCI-H460 NSCLC,> 100000 nM
same,GI50,NCI-H522 lung,147 nM and 151 nM
same,TGI,NCI-H522 lung,> 50000 nM and 5610 nM
same,GI50,NCI/ADR-RES ovarian,1970 nM and 424 nM
same,TGI,NCI/ADR-RES ovarian,> 100000 nM
same,GI50,OVCAR-3 ovarian,69 nM and 43.9 nM
same,TGI,OVCAR-3 ovarian,556 nM and 619 nM
same,GI50,OVCAR-4 ovarian,419 nM and 388 nM
same,TGI,OVCAR-4 ovarian,15700 nM and 3430 nM
same,GI50,OVCAR-5 ovarian,51.9 nM and 152 nM
same,TGI,OVCAR-5 ovarian,> 100000 nM
same,GI50,OVCAR-8 ovarian,118 nM and 219 nM
same,TGI,OVCAR-8 ovarian,> 50000 nM
same,GI50,PC-3 prostate,66.8 nM and 34.4 nM
same,GI50,RPMI-8226 leukemia,129 nM and 122 nM
same,TGI,RPMI-8226 leukemia,441 nM and 285 nM
same,GI50,RXF 393 renal,174 nM and 47 nM
same,TGI,RXF 393 renal,611 nM and 162 nM
same,GI50,SF-268 CNS,132 nM and 268 nM
same,TGI,SF-268 CNS,29100 nM
same,GI50,SF-295 CNS,177 nM and 135 nM
same,GI50,SF-539 CNS,103 nM and 96.9 nM
same,GI50,SK-MEL-2 melanoma,224 nM
same,TGI,SK-MEL-2 melanoma,7360 nM
same,GI50,SK-MEL-28 melanoma,71 nM and 56.2 nM
same,TGI,SK-MEL-28 melanoma,2560 nM
same,GI50,SK-MEL-5 melanoma,69.8 nM and 95.1 nM
same,TGI,SK-MEL-5 melanoma,197 nM and 431 nM
same,GI50,SK-OV-3 ovarian,10.1 nM
same,TGI,SK-OV-3 ovarian,63.7 nM
same,GI50,SN12C renal,77.7 nM
same,TGI,SN12C renal,> 50000 nM
same,GI50,SNB-19 CNS,572 nM and 1040 nM
same,TGI,SNB-19 CNS,> 100000 nM
same,GI50,SNB-75 CNS,7.16 nM and < 13.2 nM
same,TGI,SNB-75 CNS,31.7 nM and 81.4 nM
same,GI50,SR leukemia,215 nM and 198 nM
same,TGI,SR leukemia,3020 nM and 714 nM
same,GI50,SW-620 colon,270 nM and 656 nM
same,TGI,SW-620 colon,> 100000 nM
same,GI50,T-47D breast,< 5 nM
same,TGI,T-47D breast,25.6 nM and < 10.6 nM
same,GI50,TK-10 renal,22.8 nM and 28 nM
same,TGI,TK-10 renal,583 nM and 612 nM
same,GI50,U251 glioblastoma,314 nM and 510 nM
same,TGI,U251 glioblastoma,> 100000 nM
same,GI50,UACC-257 melanoma,172 nM and 201 nM
same,TGI,UACC-257 melanoma,10300 nM and 3800 nM
same,GI50,UACC-62 melanoma,82 nM and 84.4 nM
same,TGI,UACC-62 melanoma,237 nM and 362 nM
same,GI50,UO-31 renal,30.5 nM
same,TGI,UO-31 renal,258 nM
